Experimental data published in patent US20030064380A1, “Anergy-regulated molecules” (The Center For Blood Research, Inc., priority 2001, published 2003).

Test system: D5 Th1 T cell line
Assay: nucleic acid expression profile of D5 Th1 T cell line stimulated with 500 nM ionomycin, 1 μM CsA plus ionomycin or 20 nM PMA plus ionomycin; 19K chip, second replicate
Type: cell-based, murine
Parameters: expression level of Msa.15983.0_f_at / expression level of Msa.1669.0_f_at / expression level of Msa.18713.0_g_at / expression level of D86609_s_at / expression level of TC19211_at / expression level of TC21156_at / expression level of TC24045_at / expression level of TC30384_g_at / expression level of TC3225_at / expression level of TC38978_at / expression level of TC39080_at / expression level of TC17495_at: unit not given here
Method: D5 or primary T cells from NFAT1−/− or wild type DO11.10 transgenic mice were stimulated for 2, 6 or 16 hours with 500 nM ionomycin, 20 nM PMA plus 500 nM ionomycin, or 1 μM CsA plus 500 nM ionomycin. Total RNA was isolated with an RNeasy kit (QIAGEN). Ten μg of total RNA was quantitatively amplified and biotin-labeled as described (Byrne et al., (2000) “Preparation of mRNA for Expression Monitoring” Current Protocols in Molecular Biology (John Wiley & Sons, Inc.) pp. 22.22.21-22.22.13). […] Chips were washed, stained with SA-PE and read using an Affymetrix GeneChip® scanner and accompanying gene expression software. Labeled bacterial RNAs of known concentration were spiked into each chip hybridization mix to generate an internal standard curve, allowing normalization between chips and conversion of raw hybridization intensity values to mRNA frequency (mRNA molecules per million).
Nucleic acid expression profiles were obtained from a T cell line at multiple time points and in various T cell states. The D5 Th1 T cell line was stimulated in three different ways: 1) ionomycin alone (e.g., causing the regulatory factor NFAT to move from the cytoplasm to the nucleus); 2) ionomycin+PMA (e.g., causing both NFAT and the transcription factor AP-1 to enter the nucleus); 3) ionomycin +cyclosporin A (CsA) (e.g., preventing NFAT from entering the nucleus in response to ionomycin). […] Cells were stimulated for 0, 2, 6, and 16 hours. […] The experiment was done twice (i.e., with two replicates, Rep. 1 and Rep. 2). Nucleic acid expression at the 2, 6 and 16 hour timepoints was compared to nucleic acid expression at 0 hours.
The nucleic acid expression data was stored in a computer database. A database query was used to identify all nucleic acids that were deemed “increasing” or “decreasing” in response to ionomycin (relative to the 0 hour sample) in at least one timepoint in Rep. 1, and the nucleic acids were also deemed “increasing” or “decreasing” in response to ionomycin in Rep. 2.
To test the hypothesis that NFAT in the absence of AP-1 and NFKB induced a genetic program of anergy, genes induced in D5 T cells by ionomycin stimulation alone were evaluated (FIGS. 1, 2 and 6). Samples from D5 cells stimulated with ionomycin plus CsA, which blocks anergy induction, and ionomycin plus PMA, which pharmacologically mimic complete stimulation through the TCR and CD28 were included. RNA was prepared from unstimulated D5 T cells and from cells stimulated for 2, 6 or 16 h under these three conditions, and gene transcription profiles were evaluated using Affymetrix oligonucleotide arrays (FIG. 6A).

## C[C@H](CCC(=O)O)C[C@H](C)C[C@H](C)C(=O)/C=C(\O)[C@H](C)C[C@H](C)C/C=C/[C@@H](C)[C@@H](O)[C@@H](C)[C@@H](O)C[C@@H]1CC[C@@](C)([C@H]2CC[C@@](C)([C@@H](C)O)O2)O1 [Ionomycin, ionomycin]
2 h
  expression level of D86609_s_at: 34
  expression level of ET63436_at: 113
  expression level of MIP1-B_at: 110.5
  expression level of Msa.11439.0_s_at: 19
  expression level of Msa.15983.0_f_at: 44
  expression level of Msa.1669.0_f_at: 27
  expression level of Msa.18713.0_g_at: 83
  expression level of Msa.21745.0_s_at: 8
  expression level of TC3225_at: 34
  expression level of TC14671_g_at: 7
  expression level of TC16364_at: 4
  expression level of TC16828_at: 4
  expression level of TC17132_at: 121
  expression level of TC17495_at: 9
  expression level of TC17558_at: 41
  expression level of TC18221_at: 9
  expression level of TC19211_at: 48
  expression level of TC21156_at: 20
  expression level of TC23346_s_at: 5
  expression level of TC23450_s_at: 16
  expression level of TC24045_at: 15
  expression level of TC24067_at: 9
  expression level of TC25965_at: 42
  expression level of TC27326_g_at: 3
  expression level of TC29889_at: 11
  expression level of TC30384_g_at: 39
  expression level of TC30935_at: 93
  expression level of TC30992_s_at: 28
  expression level of TC31681_at: 56
  expression level of TC33206_at: 45
  expression level of TC33833_at: 23
  expression level of TC34186_at: 40
  expression level of TC36089_at: 156
  expression level of TC36583_at: 29
  expression level of TC37631_at: 18
  expression level of TC38094_at: 18
  expression level of TC38978_at: 6
  expression level of TC39012_at: 64
  expression level of TC39080_at: 14
  expression level of TC39762_at: 16
  expression level of TC40487_g_at: 16
  expression level of TC41014_at: 23
  expression level of U44731_s_at: 69
  expression level of X67914_s_at: 53
  expression level of Z31202_s_at: 10
  expression level of aa144045_s_at: 24
  expression level of aa174748_at: 31
  expression level of c81206_rc_at: 15
  expression level of k00083_s_at: 41
  expression level of x12531_s_at: 68
6 h
  expression level of D86609_s_at: 34
  expression level of ET63436_at: 60
  expression level of MIP1-B_at: 85.5
  expression level of Msa.11439.0_s_at: 22
  expression level of Msa.15983.0_f_at: 60
  expression level of Msa.1669.0_f_at: 32
  expression level of Msa.18713.0_g_at: 58
  expression level of Msa.21745.0_s_at: 12
  expression level of TC3225_at: 22
  expression level of TC14671_g_at: 15
  expression level of TC16364_at: 5
  expression level of TC16828_at: 17
  expression level of TC17132_at: 155
  expression level of TC17495_at: 12
  expression level of TC17558_at: 57
  expression level of TC18221_at: 17
  expression level of TC19211_at: 22
  expression level of TC21156_at: 25
  expression level of TC23346_s_at: 12
  expression level of TC23450_s_at: 21
  expression level of TC24045_at: 15
  expression level of TC24067_at: 19
  expression level of TC25965_at: 35
  expression level of TC27326_g_at: 4
  expression level of TC29889_at: 10
  expression level of TC30384_g_at: 29
  expression level of TC30935_at: 60
  expression level of TC30992_s_at: 9
  expression level of TC31681_at: 31
  expression level of TC33206_at: 19
  expression level of TC33833_at: 23
  expression level of TC34186_at: 38
  expression level of TC36089_at: 149
  expression level of TC36583_at: 26
  expression level of TC37631_at: 12
  expression level of TC38094_at: 10
  expression level of TC38978_at: 3
  expression level of TC39012_at: 42
  expression level of TC39080_at: 11
  expression level of TC39762_at: 15
  expression level of TC40487_g_at: 8
  expression level of TC41014_at: 18
  expression level of U44731_s_at: 54
  expression level of X67914_s_at: 39
  expression level of Z31202_s_at: 17
  expression level of aa144045_s_at: 17
  expression level of aa174748_at: 19
  expression level of c81206_rc_at: 13
  expression level of k00083_s_at: 45
  expression level of x12531_s_at: 49
16 h
  expression level of D86609_s_at: 45
  expression level of ET63436_at: 107
  expression level of MIP1-B_at: 97.5
  expression level of Msa.11439.0_s_at: 36
  expression level of Msa.15983.0_f_at: 56
  expression level of Msa.1669.0_f_at: 50
  expression level of Msa.18713.0_g_at: 49
  expression level of Msa.21745.0_s_at: 12
  expression level of TC3225_at: 37
  expression level of TC14671_g_at: 30
  expression level of TC16364_at: 10
  expression level of TC16828_at: 31
  expression level of TC17132_at: 126
  expression level of TC17495_at: 12
  expression level of TC17558_at: 98
  expression level of TC18221_at: 25
  expression level of TC19211_at: 22
  expression level of TC21156_at: 31
  expression level of TC23346_s_at: 13
  expression level of TC23450_s_at: 22
  expression level of TC24045_at: 25
  expression level of TC24067_at: 31
  expression level of TC25965_at: 50
  expression level of TC27326_g_at: 5
  expression level of TC29889_at: 13
  expression level of TC30384_g_at: 53
  expression level of TC30935_at: 86
  expression level of TC30992_s_at: 12
  expression level of TC31681_at: 22
  expression level of TC33206_at: 12
  expression level of TC33833_at: 23
  expression level of TC34186_at: 50
  expression level of TC36089_at: 165
  expression level of TC36583_at: 31
  expression level of TC37631_at: 29
  expression level of TC38094_at: 16
  expression level of TC38978_at: 8
  expression level of TC39012_at: 77
  expression level of TC39080_at: 24
  expression level of TC39762_at: 37
  expression level of TC40487_g_at: 13
  expression level of TC41014_at: 33
  expression level of U44731_s_at: 25
  expression level of X67914_s_at: 36
  expression level of Z31202_s_at: 45
  expression level of aa144045_s_at: 22
  expression level of aa174748_at: 21
  expression level of c81206_rc_at: 39
  expression level of k00083_s_at: 72
  expression level of x12531_s_at: 84
